Measurements as given in US10130611B2, “Use of benzo-heterocycle derivatives for preventing and treating cancer or for inhibiting cancer metastasis” (MEDICINAL BIOCONVERGENCE RESEARCH CENTER, priority 2009, dated 2018).

Assays:
[1] = target: T1, intracellular interaction between KRS and 67LR (Homo sapiens, UniProt Q15046); assay: Co-immunoprecipitation of KRS with 67LR in cells treated with KL1; assay type: cell-based
T1 construct: endogenous in cells
Method: As a control, an OD level of cells treated with DMSO was measured. FIG. 32 is a photograph showing cell growth in wells containing yeast cells having indicated interaction pairs in the presence or absence of CAND-KL1. In FIG. 33, in 293 cells, through co-immunoprecipitation, the KL1-dose-dependent effect on the interaction between KRS and 67LR was tested. The cells were treated with KL1 for 3 hours, 67LR was immunoprecipitated, and co-precipitation of KRS was determined by western blotting. In FIG. 34, in the presence of KL1 in indicated levels, a laminin receptor labeled with radioisotope was mixed with GST-KRS (1 μg). GST-KRS was precipitated with glutathione-Sepharose beads, and co-precipitated laminin receptor was detected with autoradiography. In FIG. 35, in A549 cells, the effect of KL1 on the intracellular level of 67LR and 37LRP was tested with western blotting. […] GST-KRS was immobilized on a CM5 Sensor Chip, and the binding was measured by a resonance unit (RU) at indicated concentrations (indicated by different colors). […]
From among the compounds, the inventors also examined whether the compound represented by Formula 15 (indicated by CAND-KL1, and KL1) can inhibit the intracellular interaction between KRS and 67LR. […] Then, 67LR was immunoprecipitated with its antibody, and co-immunoprecipitation of KRS was determined. […]

MMP2 = MMP2 activity (zymography); assay type: cell-based, human; settings: KL1 in different amounts
Method: On MMP2 activity (FIG. 37) and cell migration (FIGS. 38 and 39), KL1-dose-dependent effect was measured. For the test on the cell migration, the cells were treated with KL1 for 8 hours. In FIG. 40, in order to see the effect of KL1 on protein synthesis of cells, A549 cells were treated with KL1 at indicated concentrations, and starved in methionine-free medium. Then, [^35S] methionine was added thereto for 2 hours. Then, the cells were incubated in complete medium for 4 hours, and the level of added methionine was measured by a scintillation counter. In FIG. 41, KL1-dose-dependent cytotoxicity was measured by using A549 cells. In FIG. 42, the effect of KL1 on cancer metastasis was measured according to the method as described above. In each group, 6 mice were included, and KL1 was abdominally injected for 3 weeks, in a dose of 30 mg/kg once a day. Then, the mice were sacrificed. The metastasized tumor nodules over 1 mm in diameter were counted, and their average was calculated (left). The photograph of a representative lung is shown at the right side. In FIG. 43, on a KL1 treated group and a KL1 non-treated, primary tumors were observed.
A549 cells were transfected with the plasmids encoding the indicated siRNAs and recombinant KRS (or DRS) were incubated for 48 and 24 hours, respectively, and were inoculated to RPMI medium containing 10% FBS (1×10^5 cells/well). […]

T1 sequence (Q15046 2-597 limits assumed): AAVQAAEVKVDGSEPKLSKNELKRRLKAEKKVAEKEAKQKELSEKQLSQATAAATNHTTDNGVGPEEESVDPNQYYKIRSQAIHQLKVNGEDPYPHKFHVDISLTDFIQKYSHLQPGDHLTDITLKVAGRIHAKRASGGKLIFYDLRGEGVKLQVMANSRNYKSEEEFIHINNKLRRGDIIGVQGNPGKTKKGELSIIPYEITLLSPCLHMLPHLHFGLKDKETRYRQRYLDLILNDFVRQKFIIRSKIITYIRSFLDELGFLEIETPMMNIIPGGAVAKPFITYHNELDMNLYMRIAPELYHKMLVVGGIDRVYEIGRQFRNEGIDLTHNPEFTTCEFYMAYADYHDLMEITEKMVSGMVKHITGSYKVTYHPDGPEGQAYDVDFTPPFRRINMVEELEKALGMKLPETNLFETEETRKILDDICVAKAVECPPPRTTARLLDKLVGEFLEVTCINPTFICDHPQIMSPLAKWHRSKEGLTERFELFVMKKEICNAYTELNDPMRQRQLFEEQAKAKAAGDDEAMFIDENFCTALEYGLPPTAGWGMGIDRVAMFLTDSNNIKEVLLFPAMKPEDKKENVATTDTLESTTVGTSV

intracellular levels of KRS and 67LR ([1]; same co-immunoprecipitation experiment (FIG. 33)): not changed
Structure (SMILES): CCC(C(=O)O)n1/c(=N/C(=O)c2ccc(C)cc2)sc2ccccc21 (stereo not drawn) [Compound of formula 15, 2-[2-(4-Methyl-benzoylimino)-benzothiazol-3-yl]-butyric acid]
level of KRS co-precipitated with 67LR ([1]; cells treated with KL1 at different concentrations, 3 hours, 67LR immunoprecipitated): decreased according the increase of KL1 level | MMP2 activity (MMP2): inhibited
